Source: US20230321196A1 (priority 2020, published 2023)
Where two headings read alike, the source gives them in different places. Bridges are numbered along the chain shown (N, C = ends). Where no end group is shown, it is not given here.

Assays:
[1] = tested on: influenzavirus-infected mice; type: in vivo
[2] = tested on: influenzavirus-infected mice; type: in vivo; remark: listed apart in the source
[3] = tested on: influenzavirus-infected mice; type: in vivo; details: for Score of gross lesion examination of lung: day 5 after inoculation
[4] = tested on: influenzavirus-infected mice; type: in vivo; details: mean ± SE
[5] = tested on: influenzavirus PR8(A/PR/8/34 (H1N1)); assay: Test III: virus concentration in lung; type: in vivo, mice; details: administered groups vs control group
[6] = tested on: COVID-19 patients; details: 15 ng/kg body weight/min i.v. continuous 72 hours, then 8 hours per day up to day 10; trial still blinded
[7] = tested on: influenzavirus-infected mice; type: in vivo; remark: listed apart in the source
[8] = tested on: influenzavirus-infected mice; type: in vivo; remark: listed apart in the source
[9] = tested on: influenzavirus-infected mice; type: in vivo; details: for Score of gross lesion examination of lung: day 5 after inoculation; remark: listed apart in the source
[10] = tested on: influenzavirus PR8(A/PR/8/34 (H1N1)); assay: Test II: virus concentration in lung; type: in vivo, mice; details: for Virus concentration in lung: right lung, day 5 after inoculation, mean ± SE
[11] = tested on: influenzavirus-infected mice; type: in vivo; details: left lung, mean ± SE
[12] = 25 nmol/kg i.v., day 1 after inoculation
[13] = 25 nmol/kg i.v., day 2 after inoculation
[14] = 25 nmol/kg i.v., day 3 after inoculation
[15] = 25 nmol/kg i.v., day 4 after inoculation
[16] = 25 nmol/kg i.v., day 5 after inoculation
[17] = 25 nmol/kg tail vein once per day, day 0 after inoculation, mean ± SE
[18] = 250 nmol/kg i.v., day 1 after inoculation
[19] = 250 nmol/kg i.v., day 2 after inoculation
[20] = 250 nmol/kg i.v., day 3 after inoculation
[21] = 250 nmol/kg i.v., day 4 after inoculation
[22] = 250 nmol/kg i.v., day 5 after inoculation
[23] = 250 nmol/kg tail vein once per day, day 0 after inoculation, mean ± SE
[24] = 10 nmol/kg i.v., day 0 after inoculation
[25] = 10 nmol/kg i.v., day 1 after inoculation
[26] = 10 nmol/kg i.v., day 2 after inoculation
[27] = 10 nmol/kg i.v., day 3 after inoculation
[28] = 10 nmol/kg i.v., day 4 after inoculation
[29] = 10 nmol/kg i.v., day 5 after inoculation
[30] = 10 nmol/kg tail vein once per day, 1 day before inoculation, mean ± SE
[31] = 100 nmol/kg i.v., day 0 after inoculation
[32] = 100 nmol/kg i.v., day 1 after inoculation
[33] = 100 nmol/kg i.v., day 2 after inoculation
[34] = 100 nmol/kg i.v., day 3 after inoculation
[35] = 100 nmol/kg i.v., day 4 after inoculation
[36] = 100 nmol/kg i.v., day 5 after inoculation
[37] = 100 nmol/kg tail vein once per day, 1 day before inoculation, mean ± SE
[38] = Test II, administered groups vs control group

With “60K PEG-AM: adrenomedullin derivative having a PEG group with a weight-average molecular weight of 60 kDa, prepared according to WO 2017/047788” the General condition score [1, 12] was 0.0 ± 0.0, the General condition score [1, 13] was 0.1 ± 0.0 and the General condition score [1, 14] was 0.5 ± 0.0. The General condition score [1, 15] was 0.7 ± 0.1, the General condition score [1, 16] was 0.9 ± 0.1 and the General condition score [1, 17] was 0.0 ± 0.0. The General condition score [1, 18] was 0.0 ± 0.0, the General condition score [1, 19] was 0.1 ± 0.0 and the General condition score [1, 20] was 0.5 ± 0.0. The General condition score [1, 21] was 0.8 ± 0.0, the General condition score [1, 22] was 1.0 ± 0.0 and the General condition score [1, 23] was 0.0 ± 0.0. It also gave a Body weight [2, 12] of 16.4 ± 0.4, a Body weight [2, 13] of 16.3 ± 0.4 and a Body weight [2, 14] of 14.5 ± 0.4. For the same compound, the Body weight [2, 15] was 13.9 ± 0.5, the Body weight [2, 16] was 13.9 ± 0.5 and the Body weight [2, 17] was 16.4 ± 0.4. For the same compound, the Body weight [2, 18] was 16.1 ± 0.4, the Body weight [2, 19] was 15.8 ± 0.5 and the Body weight [2, 20] was 14.3 ± 0.4. The Body weight [2, 21] was 13.7 ± 0.3, the Body weight [2, 22] was 13.3 ± 0.3 and the Body weight [2, 23] was 16.4 ± 0.3. The “Score of gross lesion examination of lung” value ([3]; Left lung, 25 nmol/kg i.v. once per day, mean ± SE) was 2.0 ± 0.5, the “Score of gross lesion examination of lung” value ([3]; Left lung, 250 nmol/kg i.v. once per day) was 2.4 ± 0.2 and the “Score of gross lesion examination of lung” value ([3]; Right lung, 25 nmol/kg i.v. once per day) was 2.0 ± 0.5. For the same compound, the “Score of gross lesion examination of lung” value ([3]; Right lung, 250 nmol/kg i.v. once per day) was 1.9 ± 0.3, the “gross lesion formation in the lung” value ([3]; Test III, administered groups vs control group) was “significantly suppressed” and the “Score of histopathological examination of lung: Pneumonia score” value ([4]; Table 14, 25 nmol/kg i.v. once per day) was 8.3 ± 1.5. The “Score of histopathological examination of lung: Pneumonia score” value ([4]; Table 14, 250 nmol/kg i.v. once per day) was 9.4 ± 0.6, the “Score of histopathological examination of lung: Pneumonia score” value ([4]; Table 15, 25 nmol/kg i.v. once per day) was 8.3 ± 1.5 and the “Score of histopathological examination of lung: Pneumonia score” value ([4]; Table 15, 250 nmol/kg i.v. once per day) was 9.4 ± 0.6. The “virus concentration in the lung” value [5] was “significantly decreased”.
`CC[C@H](C)[C@H](NC(=O)[C@H](CCC(N)=O)NC(=O)[C@H](Cc1c[nH]cn1)NC(=O)[C@H](C)NC(=O)[C@H](CC(C)C)NC(=O)[C@H](CCCCN)NC(=O)[C@H](CCC(N)=O)NC(=O)[C@@H](NC(=O)[C@@H](NC(=O)[C@@H]1CSSC[C@H](NC(=O)CNC(=O)[C@H](Cc2ccccc2)NC(=O)[C@H](CO)NC(=O)[C@H](CCCNC(=N)N)NC(=O)[C@H](CC(C)C)NC(=O)CNC(=O)[C@H](CCC(N)=O)NC(=O)[C@H](Cc2ccccc2)NC(=O)[C@H](CC(N)=O)NC(=O)[C@H](CC(N)=O)NC(=O)[C@H](CCSC)NC(=O)[C@H](CO)NC(=O)[C@H](CCC(N)=O)NC(=O)[C@H](CCCNC(=N)N)NC(=O)[C@@H](N)Cc2ccc(O)cc2)C(=O)N[C@@H](CCCNC(=N)N)C(=O)N[C@@H](Cc2ccccc2)C(=O)NCC(=O)N[C@@H]([C@@H](C)O)C(=O)N1)[C@@H](C)O)C(C)C)C(=O)N[C@@H](Cc1ccc(O)cc1)C(=O)N[C@@H](CCC(N)=O)C(=O)N[C@@H](Cc1ccccc1)C(=O)N[C@H](C(=O)N[C@@H](CC(=O)O)C(=O)N[C@@H](CCCCN)C(=O)N[C@@H](CC(=O)O)C(=O)N[C@@H](CCCCN)C(=O)N[C@@H](CC(=O)O)C(=O)N[C@@H](CC(N)=O)C(=O)N[C@H](C(=O)N[C@@H](C)C(=O)N1CCC[C@H]1C(=O)N[C@@H](CCCNC(=N)N)C(=O)N[C@@H](CO)C(=O)N[C@@H](CCCCN)C(=O)N[C@H](C(=O)N[C@@H](CO)C(=O)N1CCC[C@H]1C(=O)N[C@@H](CCC(N)=O)C(=O)NCC(=O)N[C@@H](Cc1ccc(O)cc1)C(N)=O)[C@@H](C)CC)C(C)C)[C@@H](C)O` [adrenomedullin] was tested, and the adverse events [6] was “no adverse event directly caused by AM has been reported”.
In the case of “[Ala-44]hAM(13-52): adrenomedullin analog: peptide of SEQ ID NO: 17, amidated at the C-terminus, disulfide bond formed by two cysteine residues (SFGCRFGTCTVQKLAHQIYQFTDKDKDNVAPASKISPQGY-NH2; disulfide 4-9 (inferred))”, the General condition score [7, 24] is reported as 0.0 ± 0.0, the General condition score [7, 25] is reported as 0.0 ± 0.0 and the General condition score [7, 26] is reported as 0.2 ± 0.0. For the same compound, the General condition score [7, 27] was 0.5 ± 0.0, the General condition score [7, 28] was 0.8 ± 0.0 and the General condition score [7, 29] was 1.0 ± 0.0. For the same compound, the General condition score [7, 30] was 0.0 ± 0.0, the General condition score [7, 31] was 0.0 ± 0.0 and the General condition score [7, 32] was 0.0 ± 0.0. It also gave a General condition score [7, 33] of 0.1 ± 0.0, a General condition score [7, 34] of 0.5 ± 0.0 and a General condition score [7, 35] of 0.8 ± 0.0. It also gave a General condition score [7, 36] of 1.0 ± 0.0, a General condition score [7, 37] of 0.0 ± 0.0 and a Body weight [8, 24] of 15.7 ± 0.3. For the same compound, the Body weight [8, 25] was 16.1 ± 0.3, the Body weight [8, 26] was 15.1 ± 0.3 and the Body weight [8, 27] was 14.0 ± 0.3. The Body weight [8, 28] was 13.2 ± 0.2, the Body weight [8, 29] was 12.8 ± 0.2 and the Body weight [8, 30] was 15.8 ± 0.2. It also gave a Body weight [8, 31] of 15.8 ± 0.2, a Body weight [8, 32] of 16.2 ± 0.3 and a Body weight [8, 33] of 15.5 ± 0.2. For the same compound, the Body weight [8, 34] was 14.6 ± 0.3, the Body weight [8, 35] was 13.6 ± 0.2 and the Body weight [8, 36] was 12.9 ± 0.1. The Body weight [8, 37] was 15.8 ± 0.2, the “Score of gross lesion examination of lung” value ([9]; Left lung, 10 nmol/kg i.v. once per day, mean ± SE) was 2.8 ± 0.2 and the “Score of gross lesion examination of lung” value ([9]; Left lung, 100 nmol/kg i.v. once per day) was 2.6 ± 0.2. For the same compound, the “Score of gross lesion examination of lung” value ([9]; Right lung, 10 nmol/kg i.v. once per day) was 2.9 ± 0.1, the “Score of gross lesion examination of lung” value ([9]; Right lung, 100 nmol/kg i.v. once per day) was 2.5 ± 0.2 and the “gross lesion formation in the lung” value [9, 38] was “significantly suppressed”. For the same compound, the “Virus concentration in lung” value ([10]; 10 nmol/kg i.v. once per day) was 53.0 ± 3.0 ×10^4 PFU/right lung, the “Virus concentration in lung” value ([10]; 100 nmol/kg i.v. once per day) was 43.3 ± 4.6 ×10^4 PFU/right lung and the “virus concentration in the lung” value [10, 38] was “significantly decreased”. For the same compound, the “Score of histopathological examination of lung: Pneumonia score” value ([11]; 10 nmol/kg i.v. once per day) was 8.9 ± 0.4 and the “Score of histopathological examination of lung: Pneumonia score” value ([11]; 100 nmol/kg i.v. once per day) was 9.0 ± 0.5.
